Experiments:
Rattus norvegicus [1] = species on record: Rattus norvegicus; assay: Tested in vitro for growth hormone release from rat pituitary cells; format: functional, cell-based, Pituitary gland cell
Rattus norvegicus [2] = species on record: Rattus norvegicus; assay: Compound was tested in vitro for growth hormone release from rat pituitary cells; Inactive; format: functional, cell-based; details: pituitary gland cell
[3] = Rattus norvegicus, Pituitary gland cell

| SMILES | EC50 (Rattus norvegicus [1]; [3]) [nM] | further results |
| --- | --- | --- |
| CCOC(=O)[C@H](Cc1ccccc1)NC(=O)[C@@H](Cc1c[nH]c2ccccc12)NC(=O)C(C)(C)N | 240 | – |
| CCNC(=O)[C@@H](CCc1ccccc1)NC(=O)[C@@H](Cc1c[nH]c2ccccc12)NC(=O)C(C)(C)N | 246 | – |
| CCOC(=O)[C@@H](Cc1ccccc1)NC(=O)[C@@H](Cc1c[nH]c2ccccc12)NC(=O)C(C)(C)N | 350 | – |
| CC(C)(N)C(=O)N[C@H](Cc1c[nH]c2ccccc12)C(=O)NCCc1ccccc1 | – | EC50 (Rattus norvegicus [2]): Not Active |
| CCOC(=O)[C@@H](CCc1ccccc1)NC(=O)[C@H](Cc1c[nH]c2ccccc12)NC(=O)C(C)(C)N | – | EC50 (Rattus norvegicus [2]): Not Active |
| CCOC(=O)[C@@H](CCc1ccccc1)NC(=O)[C@@H](Cc1cccc2ccccc12)NC(=O)C(C)(C)N | > 50 | – |
| CCOC(=O)[C@@H](CCc1ccccc1)NC(=O)[C@@H](Cc1ccc2ccccc2c1)NC(=O)C(C)(C)N | – | EC50 (Rattus norvegicus [2]): Not Active |
| CC(C)(N)C(=O)N[C@H](Cc1c[nH]c2ccccc12)C(=O)N[C@H](CCc1ccccc1)C(=O)O | > 500 | – |
| CCOC(=O)[C@H](CCc1ccccc1)NC(=O)[C@@H](Cc1c[nH]c2ccccc12)NC(=O)C(C)(C)N | 3 | – |
| COC(=O)[C@@H](CCc1ccccc1)NC(=O)[C@@H](Cc1c[nH]c2ccccc12)NC(=O)C(C)(C)N | 18 | – |
| CC(C)(N)C(=O)N[C@H](Cc1c[nH]c2ccccc12)C(=O)NCCc1cccc2ccccc12 | 860 | – |
| CCOC(=O)[C@H](Cc1ccccc1)N(C)C(=O)[C@@H](Cc1c[nH]c2ccccc12)NC(=O)C(C)(C)N | 40 | – |
| CCOC(=O)[C@@H](CCCc1ccccc1)NC(=O)[C@@H](Cc1c[nH]c2ccccc12)NC(=O)C(C)(C)N | 1140 | – |
| CC(C)(N)C(=O)N[C@H](Cc1c[nH]c2ccccc12)C(=O)NCCCCc1ccccc1 | 700 | – |
| CCOC(=O)[C@H](Cc1cccc2ccccc12)NC(=O)[C@@H](Cc1c[nH]c2ccccc12)NC(=O)C(C)(C)N | 40 | – |
| CC(C)(N)C(=O)N[C@H](Cc1c[nH]c2ccccc12)C(=O)NCc1ccc2ccccc2c1 | 85 | – |
| CCOC(=O)[C@@H](CCc1ccccc1)NC(=O)[C@@H](Cc1c[nH]c2ccccc12)NC(=O)C(C)(C)N | – | EC50 (Rattus norvegicus [1]; pituitary gland cell): 50 nM |
| CC(C)(N)C(=O)N[C@H](Cc1c[nH]c2ccccc12)C(=O)NCc1cccc2ccccc12 | – | EC50 (Rattus norvegicus [2]): Not Active |
| CC(C)OC(=O)[C@@H](CCc1ccccc1)NC(=O)[C@@H](Cc1c[nH]c2ccccc12)NC(=O)C(C)(C)N | 4 | – |
| CCOC(=O)[C@H](CCCc1ccccc1)NC(=O)[C@@H](Cc1c[nH]c2ccccc12)NC(=O)C(C)(C)N | 820 | – |
| CC(C)(N)C(=O)N[C@H](Cc1c[nH]c2ccccc12)C(=O)NCCCc1ccccc1 | 390 | – |
| CCOC(=O)[C@H](Cc1ccc2ccccc2c1)NC(=O)[C@@H](Cc1c[nH]c2ccccc12)NC(=O)C(C)(C)N | 2000 | – |
| CCOC(=O)[C@H](CCc1ccccc1)N(C)C(=O)[C@@H](Cc1c[nH]c2ccccc12)NC(=O)C(C)(C)N | 270 | – |
| CC(C)(N)C(=O)N[C@H](Cc1c[nH]c2ccccc12)C(=O)N[C@H](CCc1ccccc1)C(=O)OCc1ccccc1 | 500 | – |

Source: ChEMBL document CHEMBL1131406, “Tripeptide growth hormone secretagogues” (Bioorg Med Chem Lett, 1998)
